{
  "source": "patent US11806363B1",
  "about": "“Green synthesis of silver nanoparticles using euphorbia dendroides aqueous extract” (King Faisal University, priority 2023, dated 2023)",
  "key": {"[1]": {"test_system": "HCT-116 cells", "assay": "MTT cytotoxicity assay, HCT-116 cells", "format": "cell-based", "conditions": "Homo sapiens; HCT-116, MTT, 48 h treatment, triplicate, mean ±SD; read-out: IC50 (50% inhibition of cancer cell growth)"}, "[2]": {"test_system": "HepG2 cells", "assay": "MTT cytotoxicity assay, HepG2 cells", "format": "cell-based", "conditions": "Homo sapiens, 48 h treatment, triplicate, mean ±SD, read-out: IC50 (50% inhibition of cancer cell growth)"}},
  "data": [
    {"compound": "COc1cccc2c1C(=O)c1c(O)c3c(c(O)c1C2=O)C[C@@](O)(C(=O)CO)C[C@@H]3O[C@H]1C[C@H](N)[C@H](O)[C@H](C)O1", "note": "[DOX, doxorubicin]", "values": [
      {"measurement": "IC50", "setting": "[1]", "result": "0.86 ± 0.16", "unit": "µg/mL"},
      {"measurement": "IC50", "setting": "[2]", "result": "0.38 ± 0.07", "unit": "µg/mL"}
    ]}
  ]
}
